Source: BigSolDB 2.1

CCCCc1nc(Cl)c(CO)n1Cc1ccc(-c2ccccc2-c2nnn[n-]2)cc1.[K+]
solubility (mole fraction)
Conditions | in cyclohexane | in ethanol | in ethyl acetate | in isopropanol | in methanol | in n-butyl acetate | in n-pentanol | in n-propanol
293.15 K | 3.4e-05 | 0.0381 | 0.00251 | 0.0027 | 0.0277 | 0.00271 | 0.0446 | 0.026
303.15 K | 2.87e-05 | 0.0473 | 0.00152 | 0.00279 | 0.0375 | 0.00238 | 0.0311 | 0.0272
313.15 K | 3.05e-05 | 0.0547 | 0.00252 | 0.00413 | 0.0445 | 0.000968 | 0.0287 | 0.0299
323.15 K | 2.72e-05 | 0.0702 | 0.00138 | 0.00547 | 0.0483 | 0.00121 | 0.0234 | 0.0376
333.15 K | 2.88e-05 | 0.0739 | 0.00288 | 0.00696 | 0.0508 | 0.00193 | 0.0205 | 0.0452
343.15 K | 2.59e-05 | 0.0785 | 0.00279 | 0.0117 | 0.0533 | 0.000907 | 0.0218 | 0.0499
